Data set [1] relates to isolated gastric fundic gland. The data set can be described thus: CAP: Acid Secretion Inhibition Test In Vitro ([14C]-aminopyrine uptake). The data set is classed as cell-based, rabbit (male Japanese White). To be noted: Oryctolagus cuniculus, 40 min; 10^-5 M compound, 10^-5 M histamine, rabbit isolated gastric fundic gland, 37° C., 40 minutes; read-out: CAP: acid secretion inhibitory rate. The gist of the method:
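Fundic gland suspension (1.6×10^6 cells/ml in HEPES nutrient buffer) was stimulated with histamine 10^-5 M plus test compound 10^-5 M (final) and [14C]-aminopyrine 0.05 μCi/ml, then shaken 40 min at 37 °C. Pellet and supernatant were scintillation-counted to give the NaSCN-corrected specific aminopyrine accumulation ratio, in duplicate.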

The test system of data set [2] is Male Slc:ICR mice. Also on record: species or system mouse (male Slc:ICR). The conditions noted are these: mouse, in vivo. The procedure: AT: Single Dose Toxicity Pretest
Male Slc:ICR mice (5-week-old) were used. Each group has 3 to 5 mice and each mouse was fasted, but allowed free access to water, for 4 to 5 hours from 9 a.m. in the test day. Then, 2,000 mg/10 ml/kg of the sample compound dissolved or suspended in an aqueous solution of 0.5% sodium carboxymethyl cellulose was orally administered thereto. To a control, only the vehicle was administered. […] The body weight was measured before and after the fasting as well as at the same time everyday. The dead animals were immediately subjected to autopsy and their organs were observed microscopically. Also, the living animals were sacrificed with ether or carbon dioxide one week after the administration and then their organs were observed microscopically.
The toxicity at the single dose of 2,000 mg/kg of the sample compound was expressed as being classified into 5 levels.
5: Mortality rate is 0%; no toxicity is found at all both in behavior and organs.
4: Mortality rate is 0%; while no toxicity is found in organs, slight toxicity is observed in behavior and body weight increase.
3: While there is a dead animal (though not all the animals are dead), no toxicity is found in organs.
2: Regardless of whether there is a dead animal or not, toxicity is found in organs.
1: All the animals are dead.

For data set [3], the system named is stress ulcer. The data set can be described thus: WIS: Restraint and Water Immersion Stress-Induced Ulcer Inhibition Test. To be noted: 100 mg/kg oral, rats, water immersion stress 7 hours. Format: in vivo, rat (male Crj:SD or Slc:SD). The gist of the method: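 Fasted male SD rats (6–7 weeks, 5–8 per group) received compound orally at 100 mg/kg in 0.3% CMC-Na or 0.05% Tween 80; 10 min later, restraint with water immersion (21 °C) for 7 h. Summed glandular erosion length gave the ulcer index; inhibition (%) versus vehicle controls.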

The results in this text go back to patent publication US5814634A, “Alkylenediamine derivative anti-ulcer drug and antibacterial drug” (Shiseido Co. Ltd., priority 1996, dated 1998).

For the compound `CC(C)=CCOc1ccc(C(=O)NCCN2CCOCC2)cc1` [Example 28], the inhibition at 10 µM in data set [1] was found to be 88%. In addition, the “AT: toxicity at single dose, 5 levels” value in data set [2] amounted to 3. Moreover, the “WIS: ulcer formation inhibitory rate” value in data set [3] came out at 64%.
In the case of `CC(C)=CCOc1ccc(C(=O)NCCN2CCOCC2)cc1OCC=C(C)C` [Example 35], the inhibition at 10 µM in data set [1] came out at 100%. Moreover, in data set [2], the “AT: toxicity at single dose, 5 levels” value is reported as 4. Moreover, in data set [3], the “WIS: ulcer formation inhibitory rate” value amounted to 48%.
On the same counts, the results for `CC(C)=CCC/C(C)=C/COc1ccc(C(=O)NCCN2CCOCC2)cc1` [Example 31] are 99%, 5 and 54%.
